Data from the supplement of paper PMC10307832.

Experiments:
Assay in all cases: relative viability (nuclei count vs DMSO), 5 days (fraction); higher = more cells survive
NCI-H2023 = tested on: NCI-H2023
Summary of the method: (§1)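 Lung cancer cell lines, seeded in 1536-well plates, were treated the following day by pin tool with a single drug or with five library-drug doses (not always all listed) in √10 steps on top of a fixed anchor-drug dose. Cells were fixed and nuclei stained in one step after 5 days, and nuclei were counted. Relative viability is the nuclei count for treated wells divided by that for vehicle wells, reported as medians of duplicate plates.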

NCI-H2405 = tested on: NCI-H2405
Summary of the method: as §1

NCI-H1993 = tested on: NCI-H1993
Summary of the method: as §1

HCC-78 = tested on: HCC-78
Summary of the method: as §1

ABC-1 = tested on: ABC-1
Summary of the method: as §1

UMC-11 = tested on: UMC-11
Summary of the method: as §1

ChaGo-K-1 = tested on: ChaGo-K-1
Summary of the method: as §1

NCI-H1793 = tested on: NCI-H1793
Summary of the method: as §1

EMC-BAC-2 = tested on: EMC-BAC-2
Summary of the method: as §1

NCI-H1944 = tested on: NCI-H1944
Summary of the method: as §1

LC-2-ad = tested on: LC-2-ad
Summary of the method: as §1

HCC-15 = tested on: HCC-15
Summary of the method: as §1

HARA = tested on: HARA
Summary of the method: as §1

NCI-H1734 = tested on: NCI-H1734
Summary of the method: as §1

SK-LU-1 = tested on: SK-LU-1
Summary of the method: as §1

NCI-H23 = tested on: NCI-H23
Summary of the method: as §1

HCC-366 = tested on: HCC-366
Summary of the method: as §1

A-427 = tested on: A-427
Summary of the method: as §1

NCI-H2228 = tested on: NCI-H2228
Summary of the method: as §1

NCI-H1650 = tested on: NCI-H1650
Summary of the method: as §1

LK-2 = tested on: LK-2
Summary of the method: as §1

COR-L23 = tested on: COR-L23
Summary of the method: as §1

NCI-H2009 = tested on: NCI-H2009
Summary of the method: as §1

NCI-H838 = tested on: NCI-H838
Summary of the method: as §1

Which results are given for `C[C@@H]1CN(CC(=O)Nc2ccc3c(c2)Cc2cccc(-c4cc(=O)cc(N5CCOCC5)o4)c2S3)C[C@H](C)O1` + N=C(N)NC(=N)NCCc1ccccc1 [Phenformin] (partner 250 µM)?
relative viability (NCI-H2023; first compound 0.04 µM): 0.458; relative viability (NCI-H2023; first compound 0.1265 µM): 0.432; relative viability (NCI-H2023; first compound 0.4 µM): 0.385; relative viability (NCI-H2023; first compound 4 µM): 0.344; relative viability (NCI-H2405; first compound 0.04 µM): 0.402; relative viability (NCI-H2405; first compound 0.1265 µM): 0.411; relative viability (NCI-H2405; first compound 0.4 µM): 0.379; relative viability (NCI-H2405; first compound 4 µM): 0.487; relative viability (NCI-H1993; first compound 0.04 µM): 0.532; relative viability (NCI-H1993; first compound 0.1265 µM): 0.497; relative viability (NCI-H1993; first compound 0.4 µM): 0.481; relative viability (NCI-H1993; first compound 4 µM): 0.498; relative viability (HCC-78; first compound 0.04 µM): 0.656; relative viability (HCC-78; first compound 0.1265 µM): 0.661; relative viability (HCC-78; first compound 0.4 µM): 0.658; relative viability (HCC-78; first compound 4 µM): 0.619; relative viability (ABC-1; first compound 0.1265 µM): 0.256; relative viability (ABC-1; first compound 0.4 µM): 0.273; relative viability (ABC-1; first compound 4 µM): 0.236; relative viability (UMC-11; first compound 0.04 µM): 0.363; relative viability (UMC-11; first compound 0.1265 µM): 0.33; relative viability (UMC-11; first compound 0.4 µM): 0.338; relative viability (UMC-11; first compound 4 µM): 0.288; relative viability (ChaGo-K-1; first compound 0.04 µM): 0.48; relative viability (ChaGo-K-1; first compound 0.1265 µM): 0.45; relative viability (ChaGo-K-1; first compound 0.4 µM): 0.474; relative viability (ChaGo-K-1; first compound 4 µM): 0.411; relative viability (NCI-H1793; first compound 0.04 µM): 0.347; relative viability (NCI-H1793; first compound 0.1265 µM): 0.339; relative viability (NCI-H1793; first compound 0.4 µM): 0.272; relative viability (NCI-H1793; first compound 4 µM): 0.273; relative viability (EMC-BAC-2; first compound 0.04 µM): 0.56; relative viability (EMC-BAC-2; first compound 0.1265 µM): 0.566; relative viability (EMC-BAC-2; first compound 0.4 µM): 0.495; relative viability (EMC-BAC-2; first compound 4 µM): 0.513; relative viability (NCI-H1944; first compound 0.04 µM): 0.191; relative viability (NCI-H1944; first compound 0.1265 µM): 0.214; relative viability (NCI-H1944; first compound 0.4 µM): 0.23; relative viability (NCI-H1944; first compound 4 µM): 0.215; relative viability (LC-2-ad; first compound 0.04 µM): 0.695; relative viability (LC-2-ad; first compound 0.1265 µM): 0.593; relative viability (LC-2-ad; first compound 0.4 µM): 0.587; relative viability (LC-2-ad; first compound 4 µM): 0.662; relative viability (HCC-15; first compound 0.04 µM): 0.479; relative viability (HCC-15; first compound 0.1265 µM): 0.437; relative viability (HCC-15; first compound 0.4 µM): 0.401; relative viability (HCC-15; first compound 4 µM): 0.363; relative viability (HARA; first compound 0.1265 µM): 0.357; relative viability (HARA; first compound 0.4 µM): 0.436; relative viability (HARA; first compound 4 µM): 0.467; relative viability (NCI-H1734; first compound 0.04 µM): 0.429; relative viability (NCI-H1734; first compound 0.1265 µM): 0.392; relative viability (NCI-H1734; first compound 0.4 µM): 0.366; relative viability (NCI-H1734; first compound 4 µM): 0.399; relative viability (SK-LU-1; first compound 0.04 µM): 0.621; relative viability (SK-LU-1; first compound 0.1265 µM): 0.531; relative viability (SK-LU-1; first compound 0.4 µM): 0.516; relative viability (SK-LU-1; first compound 4 µM): 0.373; relative viability (NCI-H23; first compound 0.04 µM): 0.719; relative viability (NCI-H23; first compound 0.1265 µM): 0.762; relative viability (NCI-H23; first compound 0.4 µM): 0.803; relative viability (NCI-H23; first compound 4 µM): 0.733; relative viability (HCC-366; first compound 0.04 µM): 0.659; relative viability (HCC-366; first compound 0.1265 µM): 0.656; relative viability (HCC-366; first compound 0.4 µM): 0.634; relative viability (HCC-366; first compound 4 µM): 0.681; relative viability (A-427; first compound 0.04 µM): 0.298; relative viability (A-427; first compound 0.1265 µM): 0.35; relative viability (A-427; first compound 0.4 µM): 0.284; relative viability (A-427; first compound 4 µM): 0.285; relative viability (NCI-H2228; first compound 0.04 µM): 0.356; relative viability (NCI-H2228; first compound 0.1265 µM): 0.406; relative viability (NCI-H2228; first compound 0.4 µM): 0.287; relative viability (NCI-H2228; first compound 4 µM): 0.289; relative viability (NCI-H1650; first compound 0.04 µM): 0.406; relative viability (NCI-H1650; first compound 0.1265 µM): 0.431; relative viability (NCI-H1650; first compound 0.4 µM): 0.37; relative viability (NCI-H1650; first compound 4 µM): 0.347; relative viability (LK-2; first compound 0.1265 µM): 0.464; relative viability (LK-2; first compound 0.4 µM): 0.365; relative viability (LK-2; first compound 4 µM): 0.634; relative viability (COR-L23; first compound 0.04 µM): 0.435; relative viability (COR-L23; first compound 0.1265 µM): 0.476; relative viability (COR-L23; first compound 0.4 µM): 0.499; relative viability (COR-L23; first compound 4 µM): 0.439; relative viability (NCI-H2009; first compound 0.04 µM): 0.525; relative viability (NCI-H2009; first compound 0.1265 µM): 0.494; relative viability (NCI-H2009; first compound 0.4 µM): 0.453; relative viability (NCI-H2009; first compound 4 µM): 0.384; relative viability (NCI-H838; first compound 0.04 µM): 0.527; relative viability (NCI-H838; first compound 0.1265 µM): 0.54; relative viability (NCI-H838; first compound 0.4 µM): 0.497; relative viability (NCI-H838; first compound 4 µM): 0.374
